Assay results reported in patent US7410971B2, “1,2-di(cyclic)substituted benzene compounds” (Eisai R&D Management Co., Ltd., priority 2003, dated 2008).

Key:
[1] = system: colon-infiltrating neutrophils (myeloperoxidase enzyme activity); assay: Oxazolone-induced colon neutrophil infiltration model; type: in vivo, Balb/c mice; conditions: Mus musculus, po, 30 mg/kg orally 30 minutes prior to intrarectal oxazolone, colon myeloperoxidase activity 4 hours after, vs oxazolone control group, read-out: Inhibitory rate (%)
Experimental: Evaluation of Compounds in Oxazolone-Induced Colon Neutrophil Infiltration Model
<Sensitization with Oxazolone>
Five- to six-week-old male Balb/c mice (Charles River Japan) were shaven at the abdomen to an approximately 2 cm square area. A 100% ethanol solution containing 3% 4-ethoxymethylene-2-phenyl-2-oxazolin-5-one (hereinafter referred to as “oxazolone”; Sigma) was applied at 150 μl onto the abdomen of each mouse.
<Preparation of Emulsion Containing Oxazolone>
Distilled water (Otsuka Pharmaceutical) was added in an equivalent volume to 100% peanut oil (Kanto Kagaku) containing 1% oxazolone, and the components were vigorously mixed with a glass syringe (Top Co.), to prepare an emulsion containing 0.5% oxazolone.
<Induction with Oxazolone>
The mice were fasted on the 3rd day after oxazolone sensitization, and were injected with 100 μl of the emulsion containing 0.5% oxazolone prepared in the way described above intrarectally at a site approximately 3 cm from the anus under ether anesthesia on the 4th day.
<Colon-Infiltrating Neutrophil Assay>
Each compound was suspended or dissolved in an aqueous solution containing 0.5% methyl cellulose (Wako), and orally administered at 30 mg/kg 30 minutes prior to the intrarectal injection of oxazolone emulsion. Four hours after the intrarectal injection of oxazolone, mice were sacrificed by cervical dislocation, and colons were extirpated, dissected in the longitudinal direction, washed with physiological saline, and transferred to ice-cooled plastic centrifugation tubes. After adding 1 ml of 50 mM potassium phosphate buffer (hereinafter abbreviated as KPB) (pH 6.0) to the tube, and the tissue were homogenized with PHYSCOTRON (Microtec Nition Co., Ltd.), 2 ml of 50 mM KPB (pH 6.0) was added and the mixture was centrifuged at 3000 rpm, 4° C. for 10 minutes and the supernatant was removed. To the resultant precipitate was added 1 ml of 50 mM KPB (pH 6.0) containing 0.5% hexadecyltrimethyl-ammonium bromide (Sigma), and freeze-thawed 3 to 5 times using liquid nitrogen and hot water, centrifuged at 3000 rpm, 4° C. for 10 minutes to yield a supernatant. The myeloperoxidase enzyme activity in the supernatant was assayed in the following manner. Specifically, to 10 μl of the obtained supernatant was added 200 μl of 50 mM KPB (pH6.0) containing 0.017% o-dianisidine (Sigma) and 0.0005% hydrogen peroxide (Wako), incubated at 37° C., and the change in absorbance at 450 nm was continuously measured for 1 minute using an EL340 Automated Microplate Reader (BIO-TEK) in kinetic mode. The units were the rate of change in absorbance per minute (mO.D./min.). With regard to the effect of each compound, the inhibitory rate (%) with respect to the oxazolone control group, i.e. the oxazolone-injected/compound-free group, was shown in the table 3.

[2] = system: DSS-induced colitis; assay: DSS-induced colitis model; type: in vivo, Balb/c mice; conditions: 30 mg/kg orally once a day for 5-7 successive days; 1-3% DSS in water for 5-7 days
Source text: Evaluation of Compounds in DSS-Induced Colitis Model
A 1-3% solution of dextran sulfate sodium (hereinafter abbreviated as DSS; ICN) in purified water (Otsuka Pharmaceutical) was fed freely to 6- to 7-week-old male Balb/c mice (Charles River Japan) for 5-7 days to induce colitis. Disease Activity Index (hereinafter abbreviated as DAI) scored based on fecal hardness, blood content in feces and body weight change, the number of neutrophils infiltrating the colon and the length of the colon were used as indexes to evaluate compounds. Each compound was suspended or dissolved in an aqueous solution containing 0.5% methyl cellulose (Wako), and orally administered at 30 mg/kg once a day, for 5-7 successive days.

[3] = system: Jurkat cells; assay: Jurkat cell adhesion system (adhesion to immobilized human fibronectin, PMA-stimulated); type: cell-based; conditions: concentration inhibiting by 50% the PMA-stimulated increase in number of adhered Jurkat cells on human fibronectin
Experimental: Evaluation of Compounds in Jurkat Cell Adhesion System
<Immobilization of Human Fibronectin in 96-Well Plate>
Human fibronectin (Becton Dickinson Biosciences) was diluted with phosphate-buffered saline (hereinafter abbreviated as PBS; Sigma) to 0.1-0.01 μg/ml, and the diluted solution was added to a 96-well plate (Becton Dickinson) at 50μ/well, and allowed to stand overnight at 4° C. On the following day, the supernatant was removed from the plate, and then PBS containing 1% bovine serum albumin (hereinafter abbreviated as BSA; Sigma) was added thereto at 100 μl/well and incubation was performed at 37° C. for 2 hours in a CO2 incubator (Hirasawa).
The supernatant was removed from each plate and Jurkat cells suspended in RPMI-1640 (Sigma) containing 1 mg/ml BSA were added at 80 μl/well for 2.5×10^5 cells/well. The compound diluted to different concentrations with RPMI-1640 containing 1 mg/ml BSA was immediately added at 10 μl/well, and then 100 nM phorbol myristate acetate (hereinafter abbreviated as PMA; Sigma) in RPMI-1640 containing 1 mg/ml BSA was added at 10 μl/well and the plate was incubated in a CO2 incubator at 37° C. for 45-60 minutes. The supernatant was removed from the plate and each well was washed several times with 100 μl/well of RPMI-1640, after which 50 mM citrate buffer (pH 5.0) containing 3.75 mM p-nitrophenol-N-acetyl-β-D-glucosaminide (Sigma) and 0.25% Triton X-100 (Sigma) were added at 60 μl/well, and the mixture was placed in a CO2 incubator and incubated at 37° C. for 45 minutes. After incubation, 50 mM glycine buffer (pH 10.4) containing 5 mM EDTA was added at 90 μl/well, and the absorbance at 405 nm was measured with an EL340 Automated Microplate Reader (BIO-TEK) to determine the adhered cell count. The concentration of each compound which inhibited the increase in the number of adhered cells by the PMA-stimulation by 50% was recorded as the IC50 (μM).

CCCN1CCN(c2ccc(N3CCOCC3)cc2C2=CC(C)(C)CC(C)(C)C2)CC1.Cl [Example 28, 4-[4-(4-Propylpiperazin-1-yl)-3-(3,3,5,5-tetramethylcyclohex-1-enyl)phenyl]morpholine hydrochloride]
inhibition in vivo at 30 mg/kg [1]: 48% | improvement in comparison with the DSS control group (DAI, number of neutrophils infiltrating the colon, length of the colon) [2]: particularly good improvement

COC1CCN(c2ccc(N3CCN(CC4CC4)CC3)c(C3=CCC(C(C)(C)C)CC3)c2)CC1.Cl (racemic) [Example 20, 1-[2-(4-t-Butylcyclohex-1-enyl)-4-(4-methoxypiperidin-1-yl)phenyl]-4-cyclopropylmethylpiperazine hydrochloride]
inhibition in vivo at 30 mg/kg [1]: 38% | improvement in comparison with the DSS control group (DAI, number of neutrophils infiltrating the colon, length of the colon) [2]: particularly good improvement

CCCCN1CCN(c2ccc(N3CCOCC3)cc2C2=CCC(C(C)(C)C)CC2)CC1.Cl (racemic) [Example 18, 4-[3-(4-t-Butylcyclohex-1-enyl)-4-(4-butylpiperazine-1-yl)phenyl]morpholine hydrochloride]
inhibition in vivo at 30 mg/kg [1]: 50% | improvement in comparison with the DSS control group (DAI, number of neutrophils infiltrating the colon, length of the colon) [2]: particularly good improvement

CC(C)CN1CCN(c2ccccc2C2=CCC3(CC2)CC3)CC1.Cl [Example 34, 1-Isobutyl-4-(2-spiro[2.5]oct-5-en-6-ylphenyl)piperazine hydrochloride]
improvement in comparison with the DSS control group (DAI, number of neutrophils infiltrating the colon, length of the colon) [2]: particularly good improvement

CC1(C)CC(c2ccccc2N2CCN(CC3CC3)CC2)CC(C)(C)C1.Cl [Example 9, 1-Cyclopropylmethyl-4-[2-(3,3,5,5-tetramethylcyclohexyl)phenyl]piperazine hydrochloride]
inhibition in vivo at 30 mg/kg [1]: 35%

CCCCCN1CCN(c2cc(OC)ccc2C2CCC(C)(C)CC2)CC1.Cl [Example 1, 1-[2-(4,4-Dimethylcyclohexyl)-5-methoxyphenyl]-4-pentylpiperazine hydrochloride]
inhibition in vivo at 30 mg/kg [1]: 45% | improvement in comparison with the DSS control group (DAI, number of neutrophils infiltrating the colon, length of the colon) [2]: particularly good improvement

CCCCN1CCN(c2ccccc2C2CCC(C(C)(C)C)CC2)CC1.Cl (stereo not drawn) [Example 15, 1-Butyl-4-[2-(4-t-butylcyclohexyl)phenyl]piperazine hydrochloride]
IC50 [3]: 2.3 µM | improvement in comparison with the DSS control group (DAI, number of neutrophils infiltrating the colon, length of the colon) [2]: particularly good improvement

CCC(=O)CN1CCN(c2ccc(N3CCOCC3)cc2C2=CCC(CC)(CC)CC2)CC1.Cl [Example 30, 1-{4-[2-(4,4-Diethylcyclohex-1-enyl)-4-morpholin-4-ylphenyl]piperazin-1-yl}butan-2-one hydrochloride]
inhibition in vivo at 30 mg/kg [1]: 23% | improvement in comparison with the DSS control group (DAI, number of neutrophils infiltrating the colon, length of the colon) [2]: particularly good improvement

CCCCN1CCN(c2ccc(N3CCC(OC)CC3)cc2C2CC(C)(C)CC(C)(C)C2)CC1.Cl [Example 32, 1-Butyl-4-[4-(4-methoxypiperidin-1-yl)-2-(3,3,5,5-tetramethylcyclohexyl)phenyl]piperazine hydrochloride]
inhibition in vivo at 30 mg/kg [1]: 51% | improvement in comparison with the DSS control group (DAI, number of neutrophils infiltrating the colon, length of the colon) [2]: particularly good improvement

CCCN1CCN(c2ccccc2C2CC(C)(C)CC(C)(C)C2)CC1.Cl [Example 31, 1-Propyl-4-[2-(3,3,5,5-tetramethylcyclohexyl)phenyl]piperazine hydrochloride]
inhibition in vivo at 30 mg/kg [1]: 38% | improvement in comparison with the DSS control group (DAI, number of neutrophils infiltrating the colon, length of the colon) [2]: particularly good improvement

COCCN1CCN(c2ccccc2C2CCC(C(C)(C)C)CC2)CC1.Cl (stereo not drawn) [Example 19, 1-[2-(4-t-Butylcyclohexyl)phenyl]-4-(2-methoxyethyl)piperazine hydrochloride]
improvement in comparison with the DSS control group (DAI, number of neutrophils infiltrating the colon, length of the colon) [2]: particularly good improvement

CC1(C)C=C(c2ccccc2N2CCN(CC3CCOCC3)CC2)CC(C)(C)C1.Cl [Example 22, 1-(Tetrahydropyran-4-ylmethyl)-4-[2-(3,3,5,5-tetramethylcyclohex-1-enyl)phenyl]piperazine hydrochloride]
inhibition in vivo at 30 mg/kg [1]: 28% | improvement in comparison with the DSS control group (DAI, number of neutrophils infiltrating the colon, length of the colon) [2]: particularly good improvement

CCC(=O)CN1CCN(c2ccccc2C2CCC(C)(C)CC2)CC1.Cl [Example 17, 1-{4-[2-(4,4-Dimethylcyclohexyl)phenyl]piperazin-1-yl}butan-2-one hydrochloride]
inhibition in vivo at 30 mg/kg [1]: 30% | improvement in comparison with the DSS control group (DAI, number of neutrophils infiltrating the colon, length of the colon) [2]: particularly good improvement

CCNC(=O)CN1CCN(c2ccccc2C2CCC(C(C)(C)C)CC2)CC1.Cl (stereo not drawn) [Example 10, 2-{4-[2-(4-t-Butylcyclohexyl)phenyl]piperazin-1-yl}-N-ethylacetamide hydrochloride]
IC50 [3]: 4.7 µM
